Measurements reported in BindingDB's records for doi:10.3109/14756366.2012.750311 (Atatürk University, 2014).

Assays:
Carbonic anhydrase 2 = Carbonic anhydrase 2 (Homo sapiens, UniProt P00918); assay: Hydratase and Esterase Activity Assays
Description: (§1) The effect of novel sulfonamides 28-33 on HCA isozyme activity was determined colorimetrically using CO2-hydration method of Wilbur and Anderson29 described previously [G l in et al., Biol. Pharm. Bull., 27:613-16]. Esterase activity was determined according to the method described by Verpoorte et al [Verpoorte et al., J. Biol. Chem., 242:4221-9].

Carbonic anhydrase 1 = Carbonic anhydrase 1 (Homo sapiens, UniProt P00915); assay: Hydratase and Esterase Activity Assays
Chain of Carbonic anhydrase 1 (P00915 whole entry): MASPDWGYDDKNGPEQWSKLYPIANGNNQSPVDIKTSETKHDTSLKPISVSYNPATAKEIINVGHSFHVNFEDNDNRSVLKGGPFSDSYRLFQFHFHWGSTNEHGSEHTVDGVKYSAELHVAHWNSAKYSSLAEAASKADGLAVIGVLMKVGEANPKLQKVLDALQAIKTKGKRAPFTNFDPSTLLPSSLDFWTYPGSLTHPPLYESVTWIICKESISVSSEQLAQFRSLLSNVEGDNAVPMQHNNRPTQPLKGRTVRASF
Description: as §1

| SMILES | IC50 (Carbonic anhydrase 2) | Ki (Carbonic anhydrase 2) | Ki (Carbonic anhydrase 1) | IC50 (Carbonic anhydrase 1) |
| --- | --- | --- | --- | --- |
| CS(=O)(=O)NC1CCc2ccccc2C1 (stereo not given) [N-(1,2,3,4-tetrahydronaphthalene-2-yl)methanesulfonamide (31)] | 338 µM | 94 µM | 228 µM |  |
| COc1cc2c(cc1OC)CC(NS(C)(=O)=O)C2 [N-(5,6-dimethoxy-2,3-dihydro-1H-inden-2-yl)methanesulfonamide (32)] |  | 372 µM | 46 µM | 266 µM |
| COc1cc2c(cc1OC)C(NS(C)(=O)=O)CC2 (stereo not given) [N-(5,6-dimethoxyindane-1-yl)methanesulfonamide (28)] |  | 215 µM | 52 µM | 487 µM |

Results, then the compound that gave them:

| IC50 (Carbonic anhydrase 2) | Ki (Carbonic anhydrase 2) | Ki (Carbonic anhydrase 1) | IC50 (Carbonic anhydrase 1) | SMILES |
| --- | --- | --- | --- | --- |
|  | 112 µM | 185 µM |  | COc1cccc2c1CCCC2NS(C)(=O)=O (stereo not given) [N-(5-metoksi-1,2,3,4-tetrahydronaphthalene-1-yl)methanesulfonamide (30)] |
|  | 211 µM | 173 µM |  | CS(=O)(=O)NC1CCc2ccccc21 (stereo not given) [N-(Indane-1-yl)methanesulfonamide (29)] |
|  | 170 µM | 104 µM |  | CS(=O)(=O)NC1Cc2ccccc2C1 [N-(Indane-2-yl)methanesulfonamide (33)] |
